Assay [1] deals with soybean cot-node explants. Briefly: GUS transient expression on soybean cot-node explants after 5-day co-cultivation with Agrobacterium (T-DNA delivery). The note with it: for infection after co-cultivation (experiment #9): 400 mg/l in co-cultivation media, MN0901, AGL1 and LBA4404. Format: cell-based, Glycine max. The text has this:
For each seedling, the roots and the majority of the hypocotyl were removed approximately 3-5 mm below the cotyledonary node by cutting the hypocotyl with a scalpel (Hinchee et al., 1998). The two cotyledons were then separated by cutting vertically through the hypocotyl region resulting in two explants. The epicotyl was subsequently removed on both explants, including all primary leaves and shoot meristems, and both the axillary bud and cotyledonary node were wounded by cutting about 10 times with a scalpel blade perpendicular to the hypocotyl. After all explants in a set were wounded (about 50), they were placed in a 25×100 mm petri plate containing 50 ml co-culture suspension for 30 minutes or inoculated into the 25 ml co-cultivation/Agrobacterium suspension for 30 minutes. The explants were then cultured on an agar-solidified co-culture media (0.5%) either without the addition of a test agent (e.g., cysteine) in 15×100 mm petri plates on top a sterile Whatman®#1 filter paper; five explants per plate with adaxial side down. Five plates were stacked together and wrapped in Parafilm®M then incubated at either 22° C. or 25° C. for 5 days in the dark.
After 5 days, the explants were washed in a liquid shoot induction media (B5 salts, MSIII iron stock, 3% sucrose, 3 mM MES, and filter sterilized B5 vitamins, 1.67 mg/l BAP, 100 mg/l cefotaxime, and 500 mg/l ticarcillin; pH 5.6) to remove excess Agrobacterium. Seven to ten explants from each cysteine level were washed in liquid shoot induction medium and placed in GUS histochemical stain (Jefferson et al., 1987). These explants were scored for GUS transient expression. Five to ten explants from each group were imbedded into a single 25×100 mm petri plate with solid shoot induction media (0.8% agar and agent, e.g., 400 mg/l cysteine) containing PPT concentrations of 1.33 mg/l, 3.33 mg/l, or 5.0 mg/l for selection. The plates were then incubated in a growth chamber with a fluctuating temperature between 18° C.-30° C. under a 18 hours light/6 hours dark cycle at 90-150 μE/m^2s.
The level of infection was scored using the GUS gene as a phenotypic marker immediately after co-culture and again after 4 weeks in shoot induction media. As it can be difficult to score the explants after co-cultivation due to the variation among explants and, in some cases, a complete staining of the target tissues, 6 categories were formed to assess the success of infection: • 4) None=There were no GUS positive sectors on any of the explants; • 5) Very low=Not all explants have GUS positive sectors, however, some have discrete foci usually seen on the hypocotyl or cot-node region. • 6) Low=More than ¾ the explants have GUS positive sectors in discrete foci on the hypocotyl and the cot-node region, but the foci are not numerous (<20). • 7) Medium=More than ½ the explants have significant GUS positive sectors at the cot-node region and hypocotyl, some seen as long lines of cells or larger sectors. • 8) Good=More than ¾ the explants have significant staining at the hypocotyl, the entire cot-node region, and on the cotyledons. […] Almost all explants have regions that are completely GUS positive. To reduce bias, samples were chosen at random and the level of infection scored before noting the treatment conditions. Samples that were between two categories are marked accordingly; those samples that resembled one category more than another were marked with a capital “X” and the other with a lowercase “x”.
Wounded soybean cot-node explants prepared from the cultivar ‘Bert’ were co-cultivated with Agrobacterium on solid co-cultivation medium containing various levels of cysteine for 5 days.

The subject of assay [2] is grape. The settings on record: Perl et al., 1996; cited from earlier work.
Assay [3] deals with Japonica rice meristem cultures. The settings on record: individually or in combination; Enríguez-Obregón et al., 1999; cited from earlier work.
The subject of assay [4] is soybean cot-node explants. The assay can be described thus: GUS+ sectors, shoots and shoot primordia after 28 days (4 weeks) on shoot induction medium with PPT (stable transformation). It counts as cell-based, Glycine max. The settings on record: amended to solid co-cultivation media. The procedure:
After 5 days, the explants were washed in a liquid shoot induction media (B5 salts, MSIII iron stock, 3% sucrose, 3 mM MES, and filter sterilized B5 vitamins, 1.67 mg/l BAP, 100 mg/l cefotaxime, and 500 mg/l ticarcillin; pH 5.6) to remove excess Agrobacterium. Seven to ten explants from each cysteine level were washed in liquid shoot induction medium and placed in GUS histochemical stain (Jefferson et al., 1987). These explants were scored for GUS transient expression. Five to ten explants from each group were imbedded into a single 25×100 mm petri plate with solid shoot induction media (0.8% agar and agent, e.g., 400 mg/l cysteine) containing PPT concentrations of 1.33 mg/l, 3.33 mg/l, or 5.0 mg/l for selection. The plates were then incubated in a growth chamber with a fluctuating temperature between 18° C.-30° C. under a 18 hours light/6 hours dark cycle at 90-150 μE/m^2s. The explants were removed from the chamber after 14 days and transferred to fresh shoot induction media containing herbicide selection. During the transfer, the hypocotyl was carefully removed from the developing shoot mass and imbedded into the media with the differentiating tissue flush with the media surface. The plates were placed back into the growth chamber for an additional 2 weeks. At the 4 week time point, explants without de novo shoot production were discarded. The cotyledons were then removed from the differentiating tissue by cutting at the base of the node and the callus trimmed before transferring into shoot elongation media containing MS salts (murashige and Skoog, 1962), MSIII iron stock, 3% sucrose, 3 mM MES, 0.8% agar, and filter sterilized B5 vitamins, 50 mg/l asparagine, 100 mg/l pyroglutamic acid, 1 mg/l zeatin riboside, 0.1 mg/l indole-acetic acid, 0.5 mg/l GA3, 100 mg/l cefotaxime, 500 mg/l ticarcillin, 1.3-5 mg/l PPT; pH 5.6). Also at this time, a percentage of the explants were sliced into about 10 sections and stained for both GUS positive sectors and GUS positive shoots. Every 2 weeks the explants were transferred into new shoot elongation media after removing dead plant tissue and the bottom of the explant cut to encourage shoot elongation of transformed shoots. For the 4 week data, the minimum number of transformation events was recorded. Those explants with a GUS positive sector in the differentiating tissue giving rise to shoots were recorded with the number of transformation events in bold and italicized (FIGS. 2-5). Shoot data was obtained by recording the number of fully formed shoots seen on an explant. […] To determine the effect of adding cysteine to the co-cultivation medium on stable transformation, co-cultured explants were cultured for 28 days on a shoot-inducing medium containing the herbicide, phosphinothricin (PPT). During the 28 day incubation, the explants usually form de novo callus and shoots in the cot-node region in a structure referred to as a callus/shoot pad (FIG. 9). The callus/shoot pads were sliced in approximately 5 mm sections, immersed into GUS histochemical stain, and scored for GUS^+ sectors throughout the callus/shoot pad. […] The formation of transgenic shoot primordia and sectors extending into developing shoot tissues were also scored on 28 day sections of explants co-cultivated on 0 and 400 mg/l cysteine (FIG. 10A). Only those GUS^+ shoot primordia with obvious trichomes, which are characteristic to leaf tissue, or GUS^+ sectors originating and extending into the tissue at the base of developing shoots (referred to hereafter as differentiating tissue) were scored (FIG. 1A2).

[5] abbreviates: Bert, LBA4404 pTOK233, agent in solid co-cultivation media, concentrations of Table 1, 5-day incubation.
Setting [6] is: agent added to co-cultivation medium.

Like-named read-outs stand apart in the source and are kept apart here.

Turning to `O[C@H](CS)[C@H](O)CS` (racemic) [DTT, dithiothreitol], the “GUS+ staining after co-cultivation” value in assay [1] (setting [5]) is reported as “increases”. For the same molecule, the “Agrobacterium-mediated T-DNA transfer/delivery into cot-node cells” value in assay [1] (setting [6]) is on record as “increased”; in assay [1] (agent added to co-cultivation medium, listed as dithiothreitol) it was “Increases”. Further, in assay [2], the “plant viability after Agrobacterium-mediated transformation of grape” value is given as “increase plant viability”.
In the case of `O=C1O[C@H]([C@@H](O)CO)C(O)=C1O` [Ascorbic acid], the “damage and viability of Japonica rice meristem cultures” value in assay [3] is “decreased damage and increased viability”.
Take `Cc1cc(-c2ccc(S(=O)(=O)O)cc2)c2ccc3c(-c4ccc(S(=O)(=O)O)cc4)cc(C)nc3c2n1` [Bathocuproine disulfonic acid]: the “GUS+ staining after co-cultivation” value in assay [1] (setting [5]) was “increases”. Moreover, the “Agrobacterium-mediated T-DNA transfer/delivery into cot-node cells” value in assay [1] (setting [6]) is “Increases”. For the same molecule, the “GUS+ staining with metal chelator” value in assay [1] (range from added chelator to added copper or iron) is reported as “significantly increased”.
Regarding `O=S(=O)(O)c1ccc(-c2ccnc3c2ccc2c(-c4ccc(S(=O)(=O)O)cc4)ccnc23)cc1` [Bathophenanthroline disulfonic acid], the “GUS+ staining after co-cultivation” value in assay [1] (setting [5]) was “increases”. In addition, the “Agrobacterium-mediated T-DNA transfer/delivery into cot-node cells” value in assay [1] (setting [6]) is listed as “Increases”.
With `N[C@H](CS)C(=O)O` [D-cysteine], the “Agrobacterium-mediated T-DNA transfer/delivery into cot-node cells” value in assay [1] (setting [6]) is recorded as “Increases”. Moreover, in assay [1] (amended to solid co-cultivation media), the “GUS+ foci at the 5-day interval” value is “increase”. Moreover, the “GUS+ foci at the 28-day interval” value in assay [4] is on record as “increase”.
Consider `N[C@@H](CCC(=O)N[C@@H](CS)C(=O)NCC(=O)O)C(=O)O` [Glutathione], for which the “infection after co-cultivation (experiment #9)” value in assay [1] was “did not result in an increase in infection”. In assay [1] (setting [5]), the “GUS+ staining after co-cultivation” value is reported as “increases”. Moreover, the “Agrobacterium-mediated T-DNA transfer/delivery into cot-node cells” value in assay [1] (setting [6]) was “Increases”.
In the case of `N[C@@H](CSSC[C@H](N)C(=O)O)C(=O)O` [L-cystine], the “Agrobacterium-mediated T-DNA transfer/delivery into cot-node cells” value in assay [1] (setting [6]) was “Increases”.
For `CSCC[C@H](N)C(=O)O` [Methionine], the “infection after co-cultivation (experiment #9)” value in assay [1] is listed as “did not result in an increase in infection”.
With `O=S([O-])([O-])=S.[Na+].[Na+]` [Na-thiosulfate, sodium thiosulfate], in assay [1], the “Agrobacterium-mediated T-DNA transfer/delivery into cot-node cells” value was “Increases” and the “GUS+ staining after co-cultivation” value is “increases”.
Turning to `O=[N+]([O-])[O-].[Ag+]` [silver nitrate], the “damage and viability of Japonica rice meristem cultures” value in assay [3] was “decreased damage and increased viability”.
